Data reported in ChEMBL document CHEMBL3885861, “Open TG-GATES”.

Organism: Rattus norvegicus
Experiment: Open TG-GATES - Regimen: Single
Type: toxicity, organism-based, Sprague-Dawley
Set-up: regimen Single, gender Male, age 6 weeks
Details: in vivo, ip, 1500 mg/kg, route intraperitoneal injection, dose level High; for APTT / Bas / Eos / Fbg / Hb / Ht / Lym / MCH / MCHC / MCV / Mono / Neu / PT / Plat / RBC / Ret / WBC: tissue Blood; for KIDNEY_L / KIDNEY_R / KIDNEY_TOTAL: tissue Kidney; for LIVER: tissue Liver; for A/G / ALP / ALT / AST / BUN / CRE / Ca / Cl / DBIL / GLC / IP / K / LDH / Na / PL / RALB / TBIL / TC / TG / TP / gamma-GTP: tissue Plasma

CCCCS(=N)(=O)CCC(N)C(=O)O (configuration not stated) [BUTHIONINE SULFOXIMINE]
TERMINAL_BW (3 h): 213.4 g | APTT (3 h): 16 s | Bas (3 h): 0% | Eos (3 h): 1% | Fbg (3 h): 216.4 mg/dL | Hb (3 h): 13.2 g/dL | Ht (3 h): 39.5% | Lym (3 h): 61.4% | MCH (3 h): 21.6 pg | MCHC (3 h): 33.4% | MCV (3 h): 64.7 fL | Mono (3 h): 9.2% | Neu (3 h): 29% | PT (3 h): 12 s | Plat (3 h): 119.7 x10_4/uL | RBC (3 h): 610.4 x10_4/ul | Ret (3 h): 8.8% | WBC (3 h): 106.8 x10_2/uL | KIDNEY_L (3 h): 0.9 g | KIDNEY_R (3 h): 1 g | KIDNEY_TOTAL (3 h): 1.9 g | LIVER (3 h): 10.1 g | A/G (3 h): 2.2 | ALP (3 h): 832 IU/L | ALT (3 h): 43.4 IU/L | AST (3 h): 48 IU/L | BUN (3 h): 15.2 mg/dL | CRE (3 h): 0.4 mg/dL | Ca (3 h): 10.9 mg/dL | Cl (3 h): 104.8 meq/L | DBIL (3 h): 0.066 mg/dL | GLC (3 h): 191.2 mg/dL | IP (3 h): 9.8 mg/dL | K (3 h): 4.5 meq/L | LDH (3 h): 89.2 IU/L | Na (3 h): 138.8 meq/L | PL (3 h): 137.8 mg/dL | RALB (3 h): 3.8 g/dL | TBIL (3 h): 0.3 mg/dL | TC (3 h): 70.2 mg/dL | TG (3 h): 57.8 mg/dL | TP (3 h): 5.5 g/dL | gamma-GTP (3 h): 1 IU/L | TERMINAL_BW (6 h): 215.9 g | APTT (6 h): 16.4 s | Bas (6 h): 0% | Eos (6 h): 0.8% | Fbg (6 h): 218.6 mg/dL | Hb (6 h): 13.3 g/dL | Ht (6 h): 39.6% | Lym (6 h): 67.2% | MCH (6 h): 22 pg | MCHC (6 h): 33.6% | MCV (6 h): 65.5 fL | Mono (6 h): 6.6% | Neu (6 h): 25.6% | PT (6 h): 10.8 s | Plat (6 h): 124.2 x10_4/uL | RBC (6 h): 605 x10_4/ul | Ret (6 h): 8.3% | WBC (6 h): 104.4 x10_2/uL | KIDNEY_L (6 h): 0.9 g | KIDNEY_R (6 h): 1 g | KIDNEY_TOTAL (6 h): 1.9 g | LIVER (6 h): 9 g | A/G (6 h): 1.9 | ALP (6 h): 696.6 IU/L | ALT (6 h): 31 IU/L | AST (6 h): 56.2 IU/L | BUN (6 h): 11.6 mg/dL | CRE (6 h): 0.7 mg/dL | Ca (6 h): 10.9 mg/dL | Cl (6 h): 104.6 meq/L | DBIL (6 h): 0.004 mg/dL | GLC (6 h): 189.2 mg/dL | IP (6 h): 10 mg/dL | K (6 h): 4.5 meq/L | LDH (6 h): 107.8 IU/L | Na (6 h): 140 meq/L | PL (6 h): 138.6 mg/dL | RALB (6 h): 3.5 g/dL | TBIL (6 h): 0.3 mg/dL | TC (6 h): 80.8 mg/dL | TG (6 h): 46.4 mg/dL | TP (6 h): 5.4 g/dL | gamma-GTP (6 h): 1.6 IU/L | TERMINAL_BW (9 h): 211.3 g | APTT (9 h): 17.8 s | Bas (9 h): 0% | Eos (9 h): 0.8% | Fbg (9 h): 255.4 mg/dL | Hb (9 h): 13.6 g/dL | Ht (9 h): 40.4% | Lym (9 h): 57.4% | MCH (9 h): 21.8 pg | MCHC (9 h): 33.7% | MCV (9 h): 64.8 fL | Mono (9 h): 5.2% | Neu (9 h): 36.6% | PT (9 h): 11.3 s | Plat (9 h): 119.4 x10_4/uL | RBC (9 h): 623.4 x10_4/ul | Ret (9 h): 8.2% | WBC (9 h): 103.7 x10_2/uL | KIDNEY_L (9 h): 1 g | KIDNEY_R (9 h): 1 g | KIDNEY_TOTAL (9 h): 1.9 g | LIVER (9 h): 8.6 g | A/G (9 h): 1.9 | ALP (9 h): 782.6 IU/L | ALT (9 h): 27 IU/L | AST (9 h): 47.4 IU/L | BUN (9 h): 12.2 mg/dL | CRE (9 h): 0.5 mg/dL | Ca (9 h): 11.3 mg/dL | Cl (9 h): 106.2 meq/L | DBIL (9 h): 0.012 mg/dL | GLC (9 h): 202.4 mg/dL | IP (9 h): 9.2 mg/dL | K (9 h): 4.9 meq/L | LDH (9 h): 89.4 IU/L | Na (9 h): 138.6 meq/L | PL (9 h): 137.6 mg/dL | RALB (9 h): 3.7 g/dL | TBIL (9 h): 0.3 mg/dL | TC (9 h): 80.8 mg/dL | TG (9 h): 37.6 mg/dL | TP (9 h): 5.6 g/dL | gamma-GTP (9 h): 1.4 IU/L | TERMINAL_BW (24 h): 224.8 g | APTT (24 h): 16.6 s | Bas (24 h): 0% | Eos (24 h): 1.4% | Fbg (24 h): 273.2 mg/dL | Hb (24 h): 13.3 g/dL | Ht (24 h): 39.7% | Lym (24 h): 73.8% | MCH (24 h): 21.7 pg | MCHC (24 h): 33.5% | MCV (24 h): 64.8 fL | Mono (24 h): 7.2% | Neu (24 h): 17.8% | PT (24 h): 11.7 s | Plat (24 h): 119.6 x10_4/uL | RBC (24 h): 613.4 x10_4/ul | Ret (24 h): 9.3% | WBC (24 h): 98.2 x10_2/uL | KIDNEY_L (24 h): 1 g | KIDNEY_R (24 h): 1 g | KIDNEY_TOTAL (24 h): 2 g | LIVER (24 h): 10.5 g | A/G (24 h): 1.8 | ALP (24 h): 1035 IU/L | ALT (24 h): 29.4 IU/L | AST (24 h): 52.6 IU/L | BUN (24 h): 19 mg/dL | CRE (24 h): 0.5 mg/dL | Ca (24 h): 11.3 mg/dL | Cl (24 h): 104.2 meq/L | DBIL (24 h): 0.024 mg/dL | GLC (24 h): 205 mg/dL | IP (24 h): 8.7 mg/dL | K (24 h): 4.7 meq/L | LDH (24 h): 104.8 IU/L | Na (24 h): 139 meq/L | PL (24 h): 143.6 mg/dL | RALB (24 h): 3.7 g/dL | TBIL (24 h): 0.3 mg/dL | TC (24 h): 81.6 mg/dL | TG (24 h): 67.4 mg/dL | TP (24 h): 5.8 g/dL | gamma-GTP (24 h): 1.4 IU/L
